Where two headings read alike, the source gives them in different places.
Tests used:
[1] = Cataleptogenic activity in rats; assay type: in vivo, rat (Sprague-Dawley); settings: rat, in vivo, po, read-out: ratio of catalepsy threshold dose to dose required to antagonize apomorphine induced gnawing
Method: (§1) (Drug Res.) 21, 252-255 (1971). In this test groups of 4-8 rats (120-170 g, Sprague-Dawley, females and males, Suddeutsche Tierfarm, Tuttlingen, West Germany) receive the test substance orally. At specified times after treatment the catalepsy of each rat is estimated by placing the forepaws on a 7 cm high block. The time for which the animal remains in this unnatural position is measured up to a maximum of 45 seconds. The threshold dose is the final dose, which still causes a catalepsy-median of >10 seconds. The compound of formula I has a threshold dose of 5 mg/kg p.o. determined during an 8 hour measurement period. This is a dose which is at least 25 times higher than that required to antagonize apomorphine induced gnawing.

catalepsy = experiment: Cataleptogenic activity in rats; assay type: in vivo, rat (Sprague-Dawley); settings: p.o.
Method: as §1

D-2 receptor sites = target: T1, D-2 receptor sites (Bos taurus, UniProt P20288); experiment: D-2 receptor binding, 3H-spiperone binding assay in calf striatal membranes
T1 construct: Calf striatal membranes are prepared as described above; from tissue; host or cells: calf brain striatum, membrane homogenate
T1 sequence (P20288 whole entry): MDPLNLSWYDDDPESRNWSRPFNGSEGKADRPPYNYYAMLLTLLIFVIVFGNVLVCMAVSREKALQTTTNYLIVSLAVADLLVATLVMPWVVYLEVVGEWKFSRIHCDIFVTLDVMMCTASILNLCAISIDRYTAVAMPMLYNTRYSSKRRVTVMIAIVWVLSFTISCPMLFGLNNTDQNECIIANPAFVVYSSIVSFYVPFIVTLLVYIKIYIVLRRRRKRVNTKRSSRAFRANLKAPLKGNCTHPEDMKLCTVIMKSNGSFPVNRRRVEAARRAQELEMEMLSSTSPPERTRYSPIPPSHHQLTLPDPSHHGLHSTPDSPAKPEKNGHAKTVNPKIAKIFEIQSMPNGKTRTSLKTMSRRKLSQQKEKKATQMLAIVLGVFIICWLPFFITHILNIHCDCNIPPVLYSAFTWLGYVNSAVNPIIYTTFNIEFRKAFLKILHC
Method: (§2) Furthermore the compound of formula I binds to dopamine receptors as characterised by the displacement of ^3 H-ligands from their respective binding sites in the homogenates of brain tissue.
(§3) Fresh calf brain striatal tissue is homogenized in a 20 fold volume of Tris-HCl buffer (50 mM, pH 7.4 at 25° C.) using a Polytron tissue homogenizer. The homogenate is centrifuged for 10 minutes at 50,000 g (4° C.) and the supernatant discarded. The pellets are resuspended in the same buffer as before. The suspension is incubated for 20 minutes at 37° C. and then recentrifuged as before. The resulting pellets are stored frozen at -20° until their use in the binding assay. For the binding assay the pellets are resuspended in Tris-HCl buffer (50 mM, pH 7.4 at 37° C., containing 120 mM NaCl) in such a way that the final volume of 2 ml contains membranes corresponding to approximately 5 mg original tissue weight. ^3 H-SCH 23390 is added to give a final concentration of 0.1 nM. The assays for the determination of nonspecific binding additionally contain 1 μM unlabelled SCH 23390. The test compound is added to give 5 to 9 different concentrations. […] The filters are monitored for radioactivity through liquid scintillation counting. […]
The high affinity of the compound for D-2 receptor sites may be determined in the ^3 H-spiperone binding assay [cf. […]

Tolerability in mice = settings: mouse, in vivo, po, well tolerated up to, read-out: well tolerated dose
Method: (§4) The compound of formula I is well tolerated in mice up to 100 mg/kg p.o. The non-toxic dose level in the dog after a 4 week treatment is 3 mg/kg/day p.o.

[2] = test system: apomorphine induced gnawing; experiment: Inhibition of apomorphine induced gnawing in the rat; assay type: in vivo, rat (Sprague-Dawley); settings: po, apomorphine hydrochloride 2.0 mg/kg i.v., read-out: threshold dose (100% inhibition of apomorphine induced gnawing)
Method: The compound of formula I inhibits apomorphine induced gnawing in the rat in a method based on that of P.A. Janssen et al., Arzneim.-Forsch. (Drug Res.) 10, 1003-1005 (1960):
Groups of 3-6 rats (males and females, 90-160 g, Sprague-Dawley, Suddeutsche Tierfarm, Tuttlingen, West Germany) are treated with the test-drug orally and after a pre-determined time further treated with 2.0 mg/kg i.v. apomorphine hydrochloride in aq. solution. They are then placed in individual cages lined with corrugated paper. At times 10, 20 and 30 minutes after the apomorphine each rat is observed for 1 minute. If gnawing occurred during an observation period, that observation is scored as positive. Thus, three scores are obtained from each rat. The supra-maximal dose of apomorphine invariably produces gnawing in all controls at all observation times. Out of the total number of observations per treatment group, the number of positives is noted. The dose of drug which causes a 100% inhibition of the apomorphine induced gnawing is taken as the threshold dose. After a pretreatment time of 3 hours the threshold dose for the compound of formula I is 0.2 mg/kg p.o., after a pretreatment time of 6 hours also 0.2 mg/kg p.o.

serum prolactin levels [3] = test system: serum prolactin levels; design: species or system rat (male Sprague-Dawley); settings: rat, in vivo
Method: The test is performed as follows:
Male rats (120-140 g, Sprague-Dawley, Suddeutsche Tierfarm, Tuttlingen, West Germany) are maintained on a 12:12 light dark cycle (lights on 06.00, off 18.00 hrs). On the evening before the experiment, animals are marked for identification purposes and caged in groups of 4 into makrolon (type 3) cages. The next morning, the rats in each group receive 10 mg/kg p.o. of the test drug or placebo (normal saline solution+2 drops HCl) 2, 4, 8, 16 or 24 hours before they are killed by decapitation. Blood samples are collected in plastic tubes, centrifuged to obtain the serum, which is then stored at -20° C. until assayed for prolactin. Prolactin in the serum is measured by radioimmunoassay according to that of A. Hausler et al., J. Ultrastruct. Res. 64, 74 (1978).

[4] = Non-toxic dose level in the dog after 4 week treatment; settings: in vivo, po, after a 4 week treatment
Method: as §4

[5] = test system: rats with an unilateral 6-OHDA (6-hydroxydopamine) induced lesion of the substantia nigra; experiment: Rotational behaviour in rats with unilateral 6-OHDA induced lesion of the substantia nigra (Ungerstedt rat); assay type: in vivo
From the text: For instance, the compound of formula I induces in rats with an unilateral 6-OHDA (6-hydroxydopamine) induced lesion of the substantia nigra [i.e. Ungerstedt rat, c.f.

D-1 receptor sites = target: T2, D-1 receptor sites (Bos taurus, UniProt Q95136); experiment: D-1 receptor binding, displacement of 3H-SCH 23390 in calf striatal membranes
T2 construct: Fresh calf brain striatal tissue is homogenized; from tissue; host or cells: calf brain striatum, membrane homogenate
T2 sequence (Q95136 whole entry): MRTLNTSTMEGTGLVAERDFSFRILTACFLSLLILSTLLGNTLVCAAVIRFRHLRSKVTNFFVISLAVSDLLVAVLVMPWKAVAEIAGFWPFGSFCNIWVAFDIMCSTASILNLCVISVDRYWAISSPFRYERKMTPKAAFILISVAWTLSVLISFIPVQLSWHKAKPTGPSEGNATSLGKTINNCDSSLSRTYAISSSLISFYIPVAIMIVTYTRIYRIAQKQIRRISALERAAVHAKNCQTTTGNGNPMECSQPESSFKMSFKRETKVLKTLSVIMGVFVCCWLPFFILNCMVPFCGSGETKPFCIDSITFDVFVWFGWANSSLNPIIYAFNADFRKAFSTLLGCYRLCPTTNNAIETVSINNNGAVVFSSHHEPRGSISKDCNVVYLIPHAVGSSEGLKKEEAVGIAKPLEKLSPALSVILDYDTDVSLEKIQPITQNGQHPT
Method: as §2
The affinity to D-1 receptor sites [cf. W. Billard et al., Life Sci. 35, 1885-1893 (1984)] using ^3 H-(R)-(+)-8-chloro-7-hydroxy-3-methyl-5-phenyl-2,3,4,5-tetrahydro-1H-3-benzazepine (^3 H-SCH 23390) as ligand is determined as follows:
as §3, with “23390.” for “23390. The test compound is added to give 5 to 9 different concentrations.”

serum prolactin levels [6] = experiment: Serum prolactin levels in male rats after subcutaneous administration (radioimmunoassay); assay type: in vivo, rat (male OFA); settings: s.c., only at high doses
Method: E. Fluckiger et al., Experientia 34, 1330-1331 (1978)]:
Male OFA-rats of about 250 g body weight are brought to the experimental room 24 hours before the actual experiment. They are kept in appropriate cages by tens. After the experimental treatment they are kept singly. Food and water are freely available. Various doses of the compound or the vehicle are administered s.c. to groups of 5 animals. In this standard experiment the animals are decapitated 4 hours after treatment. The sera of the individual animals are deep frozen until assayed. Prolactin is then measured in aliquots by radioimmunoassay. The serum prolactin levels are expressed in ng/ml in terms of the prolactin standard NIAMD-RPrl-RP1.

Structure (SMILES) | selectivity ratio [1] | cataleptogenic activity (in words) (catalepsy) | threshold dose (catalepsy-median of >10 seconds) (catalepsy; 8 hour measurement period) | IC50 (D-2 receptor sites) | MTD (Tolerability in mice) | ED100 ([2]; pretreatment time 3 hours) | ED100 ([2]; pretreatment time 6 hours) | effect on prolactin levels, oral administration (overall) (serum prolactin levels [3]) | effect on serum prolactin levels (serum prolactin levels [3]; po, 10 mg/kg) | NOAEL at 672 h [4] | rotations contralateral to the lesion ([5]; 0.5 mg/kg p.o., within 7 hours) | rotational behaviour (in words) ([5]; rats, relatively low doses, p.o.) | IC50 (D-1 receptor sites) | dose that influences serum prolactin levels (serum prolactin levels [6])
CCC(C)(CC)C(=O)N[C@H]1C[C@@H]2c3cccc4[nH]c(C)c(c34)C[C@H]2N(C)C1 [compound of formula I, N-[(5R,8S,10R)-2,6-dimethyl-ergoline-8-yl]-2-ethyl-2-methyl-butanamide] | ≥ 25 | only a weak cataleptogenic activity | 5 mg/kg p.o. | ~20 nM | ≥ 100 mg/kg | 0.2 mg/kg | 0.2 mg/kg | only weak effects on prolactin levels | declines (24 hours) towards normal | 3 mg/kg/day | 950 rotations | long lasting rotational behaviour contralateral to the lesion | ~50 nM | ≥ 10 mg/kg
O=C(CCCN1CCC(O)(c2ccc(Cl)cc2)CC1)c1ccc(F)cc1 [haloperidol, reference compound] | – | – | – | – | – | – | 0.2 mg/kg | – | – | – | – | – | – | –

— patent US5075318A, “8α-acylaminoergoline, its preparation and pharmaceutical compositions containing it” (Sandoz Ltd., priority 1987, dated 1991)
